Source: ChEMBL document CHEMBL1134215, “Influence of chain length and N-alkylation on the selective serotonin receptor ligand 9-(aminomethyl)-9,10-dihydroanthracene” (Bioorg Med Chem Lett, 2001)

Key:
Format in all cases: cell-based
[1] = molecular target: 5-hydroxytryptamine receptor 2A (Homo sapiens, UniProt P28223); experiment: Displacement of [3H]ketanserin from 5-hydroxytryptamine 2A receptor expressed NIH3T3 cells
[2] = molecular target: T1, 5-hydroxytryptamine receptor 2C (Mus musculus, UniProt P34968); experiment: Binding affinity to 5-hydroxytryptamine 2C receptor measured using radioligand [3H]Mesulergine in stably transfected NIH3T3 cells
T1 sequence (P34968 whole entry): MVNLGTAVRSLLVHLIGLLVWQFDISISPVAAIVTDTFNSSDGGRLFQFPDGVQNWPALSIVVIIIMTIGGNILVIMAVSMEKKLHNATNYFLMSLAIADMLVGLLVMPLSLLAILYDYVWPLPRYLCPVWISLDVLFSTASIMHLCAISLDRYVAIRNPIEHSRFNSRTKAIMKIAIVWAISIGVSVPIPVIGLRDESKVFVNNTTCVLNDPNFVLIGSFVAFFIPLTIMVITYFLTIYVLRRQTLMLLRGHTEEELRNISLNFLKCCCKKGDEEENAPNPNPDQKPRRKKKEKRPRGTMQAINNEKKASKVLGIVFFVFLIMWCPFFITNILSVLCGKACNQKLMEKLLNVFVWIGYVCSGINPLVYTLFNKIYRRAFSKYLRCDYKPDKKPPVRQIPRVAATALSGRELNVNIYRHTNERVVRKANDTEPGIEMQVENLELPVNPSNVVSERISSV

D(2) dopamine receptor = D(2) dopamine receptor (Mus musculus, UniProt P61168); experiment: Binding affinity to Dopamine receptor D2 using [3H]spiperone as radioligand in stably transfected NIH3T3 cells
Chain of D(2) dopamine receptor (P61168 whole entry): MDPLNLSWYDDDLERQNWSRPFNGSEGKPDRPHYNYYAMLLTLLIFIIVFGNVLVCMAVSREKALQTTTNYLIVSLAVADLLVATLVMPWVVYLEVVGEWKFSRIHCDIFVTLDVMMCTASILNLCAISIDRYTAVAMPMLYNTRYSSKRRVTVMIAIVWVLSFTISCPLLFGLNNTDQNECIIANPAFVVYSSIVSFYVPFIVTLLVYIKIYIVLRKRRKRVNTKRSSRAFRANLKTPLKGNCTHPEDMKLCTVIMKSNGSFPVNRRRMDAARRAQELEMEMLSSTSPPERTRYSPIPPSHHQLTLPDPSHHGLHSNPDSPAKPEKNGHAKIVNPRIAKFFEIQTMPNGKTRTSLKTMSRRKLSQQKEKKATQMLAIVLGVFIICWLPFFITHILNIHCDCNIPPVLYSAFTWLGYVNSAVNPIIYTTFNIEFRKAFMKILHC

[3] = molecular target: Sodium-dependent noradrenaline transporter (Mus musculus, UniProt O55192); experiment: Binding affinity to Norepinephrine transporter using [3H]-[…] as radioligand in stably transfected NIH3T3 cells
Chain of Sodium-dependent noradrenaline transporter (O55192 whole entry): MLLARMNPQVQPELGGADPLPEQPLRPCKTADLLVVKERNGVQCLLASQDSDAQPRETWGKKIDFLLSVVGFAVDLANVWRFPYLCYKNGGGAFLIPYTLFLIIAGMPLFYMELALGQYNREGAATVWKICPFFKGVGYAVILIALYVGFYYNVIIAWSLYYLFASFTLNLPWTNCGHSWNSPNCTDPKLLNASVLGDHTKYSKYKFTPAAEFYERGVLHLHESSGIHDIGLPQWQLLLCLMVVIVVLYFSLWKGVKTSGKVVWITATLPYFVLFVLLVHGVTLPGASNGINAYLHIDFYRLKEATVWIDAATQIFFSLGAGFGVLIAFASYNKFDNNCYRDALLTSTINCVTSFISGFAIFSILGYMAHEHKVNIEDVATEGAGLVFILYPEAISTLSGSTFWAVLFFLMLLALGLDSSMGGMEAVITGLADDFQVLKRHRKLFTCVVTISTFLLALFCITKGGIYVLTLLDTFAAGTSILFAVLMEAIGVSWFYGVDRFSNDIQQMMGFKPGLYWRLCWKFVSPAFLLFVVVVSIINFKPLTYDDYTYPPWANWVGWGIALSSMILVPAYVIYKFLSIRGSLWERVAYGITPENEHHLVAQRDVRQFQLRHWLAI

[4] = molecular target: Sodium-dependent serotonin transporter (Mus musculus, UniProt Q60857); experiment: Binding affinity to Serotonin transporter using [3H]-paroxetine as radioligand in stably transfected NIH3T3 cells
Chain of Sodium-dependent serotonin transporter (Q60857 whole entry): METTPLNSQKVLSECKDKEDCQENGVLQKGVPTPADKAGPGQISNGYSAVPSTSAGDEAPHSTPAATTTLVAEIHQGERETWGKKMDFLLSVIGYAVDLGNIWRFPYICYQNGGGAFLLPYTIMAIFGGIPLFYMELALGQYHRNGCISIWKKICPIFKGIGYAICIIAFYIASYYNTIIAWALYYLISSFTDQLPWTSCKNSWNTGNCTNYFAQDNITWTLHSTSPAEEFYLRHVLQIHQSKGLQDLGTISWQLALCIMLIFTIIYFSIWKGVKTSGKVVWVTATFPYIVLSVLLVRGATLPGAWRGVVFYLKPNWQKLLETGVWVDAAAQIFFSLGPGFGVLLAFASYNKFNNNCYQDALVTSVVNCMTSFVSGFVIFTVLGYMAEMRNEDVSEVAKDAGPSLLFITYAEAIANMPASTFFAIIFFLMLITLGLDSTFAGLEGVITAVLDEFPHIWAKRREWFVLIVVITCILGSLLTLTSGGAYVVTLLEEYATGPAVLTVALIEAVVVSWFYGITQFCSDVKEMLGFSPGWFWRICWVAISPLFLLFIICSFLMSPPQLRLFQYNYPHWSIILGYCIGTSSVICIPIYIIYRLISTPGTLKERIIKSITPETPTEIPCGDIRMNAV

[5] = molecular target: T1, 5-hydroxytryptamine receptor 2C; experiment: Binding affinity to 5-hydroxytryptamine 2C receptor using [3H]Mesulergine as radioligand in stably transfected NIH3T3 cells

Chain of 5-hydroxytryptamine receptor 2A (P28223 whole entry): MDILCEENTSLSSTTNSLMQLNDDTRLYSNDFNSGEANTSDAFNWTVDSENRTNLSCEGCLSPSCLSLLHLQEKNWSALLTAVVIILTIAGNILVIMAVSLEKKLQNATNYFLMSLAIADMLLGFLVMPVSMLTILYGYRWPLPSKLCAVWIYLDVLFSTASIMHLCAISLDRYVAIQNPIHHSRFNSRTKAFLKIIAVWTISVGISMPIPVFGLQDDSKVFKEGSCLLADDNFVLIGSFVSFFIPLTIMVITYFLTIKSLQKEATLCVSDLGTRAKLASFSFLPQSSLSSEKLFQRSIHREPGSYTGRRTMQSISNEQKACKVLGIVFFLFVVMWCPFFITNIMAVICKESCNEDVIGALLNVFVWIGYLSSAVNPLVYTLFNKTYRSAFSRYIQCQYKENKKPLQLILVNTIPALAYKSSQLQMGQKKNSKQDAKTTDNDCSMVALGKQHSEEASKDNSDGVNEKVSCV

Row | SMILES | Ki [1] [nM] | further results
1 | NCCCN1c2ccccc2CCc2ccccc21 | 397 | 
2 | C[N+](C)(C)CC1c2ccccc2Cc2ccccc21 | 4000 | 
3 | NCCCC1c2ccccc2Cc2ccccc21 | 32 | 
4 | NC1c2ccccc2Cc2ccccc21 | 12000 | 
5 | NCCC1c2ccccc2Cc2ccccc21 | 480 | 
6 | CN(C)CC1c2ccccc2Cc2ccccc21 | 540 | 
7 | CN(C)CCCC1c2ccccc2Cc2ccccc21 | 22 | 
8 | CNCCCC1c2ccccc2Cc2ccccc21 | 13 | 
9 | c1ccc(CNCC2c3ccccc3Cc3ccccc32)cc1 | 721 | 
10 | NCC1c2ccccc2Cc2ccccc21 |  | Ki [2]: 43 nM; Ki (D(2) dopamine receptor): > 10000 nM; Ki [3]: > 10000 nM; Ki [4]: > 10 µM
11 | CNCC1c2ccccc2Cc2ccccc21 | 52 | 
12 | CN1CCC(=C2c3ccccc3C=Cc3ccccc32)CC1 [CYPROHEPTADINE] |  | Ki [5]: 11 nM; Ki (D(2) dopamine receptor): 112 nM; Ki [3]: 290 nM; Ki [4]: 4.1 µM
13 | CN(C)CCCN1c2ccccc2CCc2ccccc21 [IMIPRAMINE] |  | Ki (D(2) dopamine receptor): 726 nM
